Reference: patent publication US20260091012A1, “Methods Of Treating Meduloblastoma With Thyroid Hormone” (Institute For Cancer Research d/b/a The Research Institute …, priority 2022, published 2026)

Assays:
[1] = test system: RCMB28 cells
Description: (§1) GDC0449 (50 mg/kg) diluted using MCT and administrated to mice by oral gavage once a day. […] Log-rank survival analyses were performed in GraphPad Prism 9.
(§2) MB cells were stereotaxically injected into the cerebellum of 6- to 8-week-old SCID mice. Before transplantation, MB cells were infected with lentivirus carrying firefly luciferase for 24 hours. For transplantation with MB cells after the virus infection, the cell suspension was centrifuged at 1000 rpm for 5 minutes to remove the supernatant. 1×10^6 cells (based on Trypan blue staining) were injected into the cerebellum of each mouse. Animals were monitored weekly using in vivo bioluminescence imaging.
G3-MB PDOXs were generated by intracranial transplantation of RCMB28 cells transduced with a luciferase expressing construct.

[2] = test system: SmoM2 tumor mice; assay: Survival and tumor markers in SmoM2 tumor mice; format: in vivo, mouse
Description: (§3) Math1-Cre mice, Ptch1^fl/fl mice, R26-SmoM2 mice, Math1-CreER mice, CAG-Cas9 mice and were purchased from the Jackson Laboratory. All mice were bred and genotyped as recommended by the Jackson Laboratory. CB17/SCID mice were bred in the Fox Chase Cancer Center Laboratory Animal Facility (LAF).
as §1
Conversely, pHH3, a cell proliferation maker, was decreased in T3-treated mice tumor tissues (see, FIG. 5, Panel B).

[3] = test system: Group3 (Ms)MB cells; assay: EdU incorporation, proliferation of MB group3 (Mouse) cells; format: cell-based; conditions: T3, 72 hours
Description: (§4) The EdU incubated cells were cultured at 1 μM in culture medium for 1 hour. 4% PFA was used to fix the cells for 10 minutes. The cells were incubated with the staining solution for 20 minutes in the dark. The cells were washed with PBST for 5 minutes/time for 3 times.
(§5) The percentage of EdU+ cells in the culture was quantified (see, FIG. 6, Panel A). […] The percentage of EdU+ cells in the culture was quantified (see, FIG. 6, Panel B). […] The percentage of EdU+ cells in the culture were quantified (see, FIG. 6, Panel C). […] Thus, thyroid hormone may be used to treat different type of medulloblastoma.

[4] = test system: Math1-Cre/Ptch1^fl/fl tumor mice; assay: Survival and tumor markers in Math1-Cre/Ptch1fl/fl tumor mice; format: in vivo, mouse
Description: as §3, §1

[5] = test system: MB cells isolated from Math1-Cre/Ptch1^fl/fl tumor mice; assay: Cell Counting Kit-8 (CCK8) assay of MB cells, T3 and cisplatin; format: cell-based, mouse
Description: MB cells were treated with vehicle (DMSO) as a control. […] The survival of MB cells was measured by Cell Counting Kit-8 (CCK8) following the treatment.

[6] = test system: D341; assay: EdU incorporation, proliferation of human MB group3 cell line D341; format: cell-based; conditions: D341, T3, 72 hours
From the text: (§6) MB cells were isolated from Math1-Cre/Ptch1^fl/fl, Math1-Cre/Ptch1^fl/fl/Cas9 and SmoM2 tumor-bearing mice at 6 to 8 weeks of age, respectively. Tumor tissue was dissociated in a papain solution to obtain a single-cell suspension and then centrifuged through a 35% and 65% Percoll gradient. Cells from the 35% to 65% interface were suspended in Dulbecco's PBS (DPBS) plus 0.5% BSA. Cells were then suspended in NB-B22 (B22 supplement followed protocol in Jacob Hanna's lab) and plated on poly-D-lysine (PDL)-coated coverslips (BD Biosciences). D283, D341 and MB-shh cell lines were cultured in DMEM with 10% fetal bovine serum, 1% Pen/Strep and 2 mM L-glutamine (Invitrogen).
as §4, §5

[7] = test system: Shh type PDX-luciferase cells; assay: Human shh type MB PDX-luciferase growth in cerebellum of SCID mice (bioluminescence); format: in vivo; conditions: SCID mice treated by T3 for 3 weeks vs untreated controls
Description: as §1, §2

[8] = test system: D283; assay: EdU incorporation, proliferation of human MB group3 cell line D283; format: cell-based; conditions: D283, T3, 72 hours
From the text: as §6, §4, §5

[9] = test system: MB cells; assay: Immunostaining of differentiation marker MAP2 in MB cells; format: cell-based, mouse; conditions: MB cells treated by T3 for 48 hours
Description: Immunofluorescent staining of cells was carried out according to standard methods. Briefly, cells were blocked and permeabilized for 1 hour with PBS containing 0.1% Triton X-100 and 10% normal goat serum, stained with primary antibodies (1:400) overnight at 4° C. and incubated with secondary antibodies (1:500) for 1 hour. Cells were counterstained with DAPI and mounted with Fluoromount-G (Southern Biotech) before being visualized using a Nikon Eclipse Ti microscope.

[10] = test system: MB ptch−/− cells; assay: EdU incorporation, proliferation of MB ptch−/− cells; format: cell-based, mouse; conditions: NB-B22 cultured MB ptch−/− cells, different concentrations of T3, 48 hours; inhibition concentration dependent
From the text: as §6, §1, §4
The inhibition was concentration dependent. The percentage of EdU+ cells in the culture were quantified (see, FIG. 1, Panel B). DAPI was used to counterstain cell nuclei.

[11] = T3 200 ng/g i.p. twice a day vs without T3
[12] = T3-treated mice, immunohistochemistry

Row | Compound | survival of recipient mice ([1]; T3 i.p. compared with PBS treatment, p<0.01) | tumor progression in recipient mice ([1]; T3 i.p. vs PBS, after tumors were established) | median survival ([1]; T3 i.p., PBS treatment 15 days, p<0.01) | mice survival [2, 11] | NeuN (differentiation marker) expression in tumor tissues [2, 12] | pHH3 (cell proliferation marker) in tumor tissues [2, 12] | proliferation of group3 tumor cells (percentage of EdU+ cells) [3] | mice survival [4, 11] | tumor progression in vivo ([4]; T3-treated mice) | NeuN (differentiation marker) expression in tumor tissues [4, 12] | pHH3 (cell proliferation marker) in tumor tissues [4, 12] | MB cell proliferation (CCK8) ([5]; T3 alone at two concentrations vs vehicle (DMSO)) | proliferation of group3 tumor cells (percentage of EdU+ cells) [6] | MB growth (in vivo bioluminescence) [7] | proliferation of group3 tumor cells (percentage of EdU+ cells) [8] | MAP2 expression (differentiation marker) [9] | proliferation of medulloblastoma cells (percentage of EdU+ cells) [10] | cell proliferation / survival of MB cells (CCK8) ([5]; cisplatin alone at seven different concentrations vs vehicle (DMSO))
1 | N[C@@H](Cc1cc(I)c(Oc2ccc(O)c(I)c2)c(I)c1)C(=O)O [T3, triiodothyronine] | significantly prolonged | significantly repressed | undefined | prolonged | enhanced expression | decreased | significantly inhibited | prolonged | repressed tumor progression | enhanced expression | decreased | decreased | significantly inhibited | significantly inhibited | significantly inhibited | increased | significantly inhibited | 
2 | N.N.[Cl][Pt][Cl] [cisplatin] |  |  |  |  |  |  |  |  |  |  |  |  |  |  |  |  |  | inhibited cell proliferation significantly except 31.23 nM and 62.5 nM
